Data as given in US10940139B2, “Compounds that interact with the Ras superfamily for the treatment of cancers, inflammatory diseases, rasopathies, and fibrotic disease” (Shy Therapeutics LLC, priority 2017, dated 2021).

Tests used:
[1] = test system: IL6 production in RAW 264.7 macrophage cell line; experiment: Mouse IL6 quantification assay (LPS-stimulated macrophages, ELISA); assay type: cell-based; conditions: RAW264.7, RAW 264.7 murine leukemia virus transformed macrophage cell lines, LPS stimulation, read-out: IL-6 % Inhibition at 30 μM
[2] = test system: TNFα production in RAW 264.7 macrophage cell line; experiment: Mouse TNF alpha quantification assay (LPS-stimulated macrophages, ELISA); assay type: cell-based; conditions: RAW264.7, RAW 264.7 murine leukemia virus transformed macrophage cell lines, LPS stimulation, read-out: TNF-α % Inhibition at 30 μM

Structure (SMILES) | inhibition at 30 µM [1] [%] | inhibition at 30 µM [2] [%]
Cc1c(Br)sc2c(O)nc(-c3ccccn3)nc12 [drawing 2312] | 76 to 100 | 51 to 75
COc1ccc(COCC(=O)Nc2nnc(-c3ccccn3)[nH]2)cc1 [drawing 2004] | 26 to 50 | 1 to 25
Cc1ccc(O)c(CN(C)Cc2nccn2Cc2ccccc2)n1 [drawing 2050] | 1 to 25 | 0
Nc1nc(-c2ccccn2)nc2c(-c3ccccc3)csc12 [drawing 2251] | 76 to 100 | 51 to 75
O=C(c1csc2c(O)nc(-c3ccccn3)nc12)N1CCN(Cc2cccc(O)c2)CC1 [drawing 2169] | 26 to 50 | 1 to 25
Nc1nc(O)c2scc(C(=O)N3CCC(N4CCCC4=O)CC3)c2n1 [drawing 2094] | 1 to 25 | 0
O=C(c1csc2c(O)nc(-c3ccccn3)nc12)N1CCC(c2cccnc2)CC1 [drawing 2109] | 76 to 100 | 1 to 25
COC(=O)c1cncc(C(=O)Nc2nnc(-c3ccccn3)[nH]2)c1 [drawing 1981] | 1 to 25 | 1 to 25
N#Cc1cccc(-c2csc3c(O)nc(-c4ccccn4)nc23)c1 [drawing 2325] | 26 to 50 | 0
Oc1nc(-c2ccccn2)nc2c(-c3ccc(Cl)c(Cl)c3)csc12 [drawing 2301] | 26 to 50 | 0
Oc1nc(-c2ccccn2)nc2sc3c(c12)CCNC3 [drawing 2244] | 26 to 50 | 26 to 50
COc1ccc(CCC(=O)Nc2nnc(-c3ccccn3)[nH]2)cc1 [drawing 1939] | 1 to 25 | 0
Oc1nc(-c2ccncn2)nc2c(-c3cccc(C(F)(F)F)c3)csc12 [drawing 2434] | 26 to 50 | 0
O=C(c1csc2c(O)nc(-c3ccccn3)nc12)N1CCN(Cc2ccc(O)c(Cl)c2)CC1 [drawing 2190] | 76 to 100 | 1 to 25
Cc1noc(C)c1CC(=O)Nc1nnc(-c2ccccn2)[nH]1 [drawing 1957] | 1 to 25 | 0
O=C(CN1CCN(c2nc(-c3ccccn3)nc3scc(-c4ccccc4)c23)CC1)N1CCCC1 [drawing 2157] | 1 to 25 | 1 to 25
O=C(Nc1nnc(-c2ccccn2)[nH]1)C1Cc2ccccc2O1 (stereo not drawn) [drawing 1965] | 1 to 25 | 0
COCCNc1nc(-c2nccn2C)nc2sc(-c3ccccc3)c(-c3ccccn3)c12 [drawing 2449] | 76 to 100 | 76 to 100
COCCNc1nc(-c2ccccn2)nc(-c2cccc(OCCN(C)C)c2)c1Oc1ccccc1 [drawing 2356] | 0 | 1 to 25
COc1ccc(-c2c(-c3ccccc3)sc3c(O)nc(-c4nccn4C)nc23)cn1 [drawing 2420] | 26 to 50 | 26 to 50
Oc1nc(-c2ccccn2)nc2c(CC3CNC3)csc12 [drawing 2346] | 76 to 100 | 1 to 25
O=C(c1csc2c(O)nc(-c3ccccn3)nc12)N1CCNC(c2ccc(F)cc2)C1 (stereo not drawn) [drawing 2217] | 1 to 25 | 0

Structure (SMILES) | inhibition at 30 µM [1] [%] | inhibition at 30 µM [2] [%]
COc1nccc(CCNC(=O)c2csc3nc(-c4ccccn4)nc(N4CCOCC4)c23)n1 [drawing 2289] | 26 to 50 | 0
COc1ccc(-c2csc3c(O)nc(-c4nccn4C)nc23)cn1 [drawing 2440] | 76 to 100 | 76 to 100
Cn1ccc(C(=O)Nc2nnc(-c3ccccn3)[nH]2)cc1=O [drawing 1945] | 0 | 1 to 25
COc1ccccc1C1CN(C(=O)c2csc3c(O)nc(-c4ccccn4)nc23)CCO1 (stereo not drawn) [drawing 2192] | 76 to 100 | 51 to 75
COCCNc1nc(-c2nccn2C)nc2sc(-c3ccncc3)c(-c3ccccc3)c12 [drawing 2409] | 76 to 100 | 51 to 75
Cn1cnc(-c2nc(O)c3c(-c4ccccc4)c(-c4ccc(CNC(=O)OC(C)(C)C)cc4)sc3n2)c1 [drawing 2364] | 1 to 25 | 0
CCN(CC)CCC(C)Nc1nc(-c2ccccn2)nc2sccc12 (stereo not drawn) [drawing 2130] | 1 to 25 | 0
CS(=O)(=O)N1CCCc2cc(C(=O)Nc3nnc(-c4ccccn4)[nH]3)ccc21 [drawing 2002] | 26 to 50 | 1 to 25
CCOC(=O)NC1CCN(C(=O)c2csc3c(O)nc(N)nc23)CC1 [drawing 2095] | 0 | 1 to 25
O=C(NCCc1ccncn1)c1csc2nc(-c3ccccn3)nc(N3CCOCC3)c12 [drawing 2321] | 1 to 25 | 0
Nc1nc(O)c2sc(-c3cccc(C(=O)NCc4cccc(O)n4)c3)cc2n1 [drawing 2373] | 51 to 75 | 0
Nc1nc(O)c2scc(C(=O)N(CCO)CCOCCO)c2n1 [drawing 2096] | 1 to 25 | 0
Cc1ccc(CC(=O)Nc2nnc(-c3ccccn3)[nH]2)cc1 [drawing 1943] | 1 to 25 | 0
COc1nc(-c2ccccn2)nc2c(C3CCCCC3)csc12 [drawing 2317] | 26 to 50 | 1 to 25
CCc1cc(NNC(=O)c2ccc(C#N)cc2)nc(-c2ccccn2)n1 [drawing 2040] | 76 to 100 | 76 to 100
CNC(=O)CN1CCN(c2nc(-c3ccccn3)nc3scc(-c4ccccc4)c23)CC1 [drawing 2144] | 1 to 25 | 1 to 25
COc1cc2c(cc1OC)CCN(C(=O)c1csc3c(O)nc(-c4ccccn4)nc13)CC2 [drawing 2117] | 26 to 50 | 1 to 25
O=C(c1csc2c(O)nc(-c3ccccn3)nc12)N1CCOC(c2cccc(F)c2)C1 (stereo not drawn) [drawing 2170] | 26 to 50 | 1 to 25
O=C(c1csc2c(O)nc(-c3ccccn3)nc12)N1CCNC(Cc2ccc(F)cc2)C1 (stereo not drawn) [drawing 2224] | 26 to 50 | 1 to 25
Oc1nc(-c2ccccn2)nc2c(-c3ccccc3OC3CCCCC3)csc12 [drawing 2258] | 76 to 100 | 26 to 50
O=C(COc1ccc2c(c1)CCC2)Nc1nnc(-c2ccccn2)[nH]1 [drawing 1978] | 1 to 25 | 0
Cc1cnc(-c2ccccn2)nc1NC(=O)C(C)c1ccc(C#N)cc1 (stereo not drawn) [drawing 2209] | 1 to 25 | 1 to 25

Structure (SMILES) | inhibition at 30 µM [1] [%] | inhibition at 30 µM [2] [%]
Oc1nc(-c2ccccn2)nc2c(C3CC3)csc12 [drawing 2345] | 1 to 25 | 1 to 25
COCCCC(=O)N1CCCc2c(O)nc(-c3ccccn3)nc21 [drawing 2080] | 76 to 100 | 1 to 25
CCCCSc1nc(-c2cccs2)c(C(=O)C(F)(F)F)cc1C#N [drawing 2053] | 51 to 75 | 0
Nc1nc(-c2ccccn2)nc(C(=O)NCCc2ccncc2)c1Oc1ccccc1 [drawing 2378] | 0 | 0
c1ccc(-c2csc3nc(-c4ccccn4)nc(N4CCN(CCN5CCCC5)CC4)c23)cc1 [drawing 2153] | 26 to 50 | 0
COc1cnc(-c2nccn2C)nc1O [drawing 2340] | 1 to 25 | 0
COc1nc(-c2ccccn2)nc2c1c(-c1ccccc1)nn2-c1ccccn1 [drawing 2367] | 76 to 100 | 76 to 100
CCN(CC)S(=O)(=O)c1ccc(NCCOC)c(C(=O)NCCSCc2ccc(C)cc2)c1 [drawing 2066] | 26 to 50 | 26 to 50
Cc1cnc(-c2ccccn2)nc1NC(=O)C1CCCc2cc(C#N)ccc21 (stereo not drawn) [drawing 2220] | 76 to 100 | 51 to 75
O=C(CN1CCN(c2nc(-c3ccccn3)nc3scc(-c4ccccc4)c23)CC1)NC1CC1 [drawing 2158] | 76 to 100 | 26 to 50
CNC(=O)c1ccc(-c2csc3c(O)nc(-c4ccccn4)nc23)cc1C [drawing 2277] | 26 to 50 | 0
Cc1sc2c(O)nc(-c3ccccn3)nc2c1Br [drawing 2349] | 26 to 50 | 0
CN(CC(=O)Nc1nnc(-c2ccccn2)[nH]1)S(=O)(=O)c1ccccc1 [drawing 2001] | 1 to 25 | 0
Oc1ccc(C2(c3cccc(Cl)c3)CCCC2)cc1 [drawing 2055] | 76 to 100 | 76 to 100
CCOCCOc1nc(-c2nccn2C)nc2sc(-c3ccccc3)c(-c3ccccc3)c12 [drawing 2399] | 1 to 25 | 26 to 50
COc1ccc(CCN(C)C(=O)c2csc3nc(-c4ccccn4)nc(N4CCOCC4)c23)cn1 [drawing 2173] | 26 to 50 | 0
O=C(Cc1c[nH]c2ccccc12)Nc1nnc(-c2ccccn2)[nH]1 [drawing 1931] | 26 to 50 | 1 to 25
Cc1sc2c(O)nc(-c3ccccn3)nc2c1-c1ccccc1 [drawing 2297] | 76 to 100 | 76 to 100
Oc1nc(-c2ccccn2)nc2c(-c3ccc(CN4CCOCC4)cc3)csc12 [drawing 2274] | 26 to 50 | 0
COC(=O)c1c(C)sc2c(N)nc(-c3ccccn3)nc12 [drawing 2335] | 76 to 100 | 1 to 25
O=C(Nc1nnc(-c2ccccn2)[nH]1)C1COc2ccccc2C1 (stereo not drawn) [drawing 1955] | 26 to 50 | 1 to 25
Nc1nc(-c2ccccn2)nc2scc(C(=O)O)c12 [drawing 2298] | 1 to 25 | 1 to 25
